In US20230382925A1, “MODULATORS OF CYSTIC FIBROSIS TRANSMEMBRANE CONDUCTANCE REGULATOR” (VERTEX PHARMACEUTICALS INCORPORATED, priority 2020, published 2023):
Where two headings read alike, the source gives them in different places.

Target: CFTR (Homo sapiens, UniProt P13569)
Test: Membrane Potential Dye, Enteroid Assay B
Type: cell-based
Protocol: Base medium (ADF+++) consisted of Advanced […], 2 mM Glutamax, 10 mM HEPES, 1 μg/mL penicillin/streptomycin.
Intestinal enteroid maintenance medium (IEMMN) consisted of ADF+++, 1× B27 supplement, 1× N2 supplement, 1.25 mM N-acetyl cysteine, 10 mM Nicotinamide, 50 ng/mL hEGF, 10 nM Gastrin, 1 μg/mL hR-spondin-1, 100 ng/mL hNoggin, TGF-b type 1 inhibitor A-83-01, 100 μg/mL Primocin, 10 μM P38 MAPK inhibitor SB202190.
Bath 1 Buffer consisted of 1 mM MgCl2, 160 mM NaCl, 4.5 mM KCl, 10 mM HEPES, 10 mM Glucose, 2 mM CaCl2).
Chloride Free Buffer consisted of 1 mM Magnesium Gluconate, 2 mM Calcium Gluconate, 4.5 mM Potassium Gluconate, 160 mM Sodium Gluconate, 10 mM HEPES, 10 mM Glucose.
Bath 1 Dye Solution consisted of Bath 1 Buffer, 0.04% Pluronic F127, 20 μM Methyl Oxonol, 30 μM CaCCinh-A01, 30 μM Chicago Sky Blue.
Chloride Free Dye Solution consisted of Chloride Free Buffer, 0.04% Pluronic F127, 20 μM Methyl Oxonol, 30 μM CaCCinh-A01, 30 μM Chicago Sky Blue.
Chloride Free Dye Stimulation Solution consisted of Chloride Free Dye Solution, 10 μM forskolin, 100 μM IBMX, and 300 nM Compound III.
Human intestinal epithelial enteroid cells were obtained from the Hubrecht Institute for Developmental Biology and Stem Cell Research, Utrecht, The Netherlands and expanded in T-Flasks as previously described (Dekkers J F, Wiegerinck C L, de Jonge H R, Bronsveld I, Janssens H M, de Winter-de Groot K M, Brandsma A M, de Jong N W M, Bijvelds M J C, Scholte B J, Nieuwenhuis E E S, van den Brink S, Clevers H, van der Ent C K, Middendorp S and M Beekman J M. A functional CFTR assay using primary cystic fibrosis intestinal organoids. Nat Med. 2013 July; 19(7):939-45.).
3. Enteroid Cell Harvesting and Seeding
Cells were recovered in cell recovery solution, collected by centrifugation at 650 rpm for 5 min at 4° C., resuspended in TrypLE and incubated for 5 min at 37° C. Cells were then collected by centrifugation at 650 rpm for 5 min at 4° C. and resuspended in IEMM containing 10 μM ROCK inhibitor (RI). The cell suspension was passed through a 40 μm cell strainer and resuspended at 1×10^6 cells/mL in IEMM containing 10 μM RI. Cells were seeded at 5000 cells/well into multi-well plates and incubated for overnight at 37° C., 95% humidity and 5% CO2 prior to assay.
5. Membrane Potential Dye, Enteroid Assay B
Enteroid cells were incubated with test compound in IEMM for 18-24 hours at 37° C., 95% humidity and 5% CO2. […] Briefly, cells were washed 5 times in Bath 1 Buffer. Bath 1 Dye Solution was added and the cells were incubated for 25 min at room temperature. Following dye incubation, cells were washed 3 times in Chloride Free Dye Solution. Chloride transport was initiated by addition of Chloride Free Dye Stimulation Solution and the fluorescence signal was read for 15 min. […] Chloride transport was then expressed as a percentage of the chloride transport following treatment with 1 μM (14S)-8-[3-(2-{Dispiro[2.0.2.1]heptan-7-yl}ethoxy)-1H-pyrazol-1-yl]-12,12-dimethyl-2λ^6-thia-3,9,11,18,23-pentaazatetracyclo[17.3.1.111,14.05,10]tetracosa-1(22),5,7,9,19(23),20-hexaene-2,2,4-trione, 3 μM (R)-1-(2,2-difluorobenzo[d][1,3]dioxol-5-yl)-N-(1-(2,3-dihydroxypropyl)-6-fluoro-2-(1-hydroxy-2-methylpropan-2-yl)-1H-indol-5-yl)cyclopropanecarboxamide and 300 nM acute N-[2,4-bis(1,1-dimethylethyl)-5-hydroxyphenyl]-1,4-dihydro-4-oxoquinoline-3-carboxamide triple combination control (% Activity).

[1] = Table 10, read-out: Ent. B EC50

Chain of CFTR (P13569 with tags, fused parts or gaps DEL508-508): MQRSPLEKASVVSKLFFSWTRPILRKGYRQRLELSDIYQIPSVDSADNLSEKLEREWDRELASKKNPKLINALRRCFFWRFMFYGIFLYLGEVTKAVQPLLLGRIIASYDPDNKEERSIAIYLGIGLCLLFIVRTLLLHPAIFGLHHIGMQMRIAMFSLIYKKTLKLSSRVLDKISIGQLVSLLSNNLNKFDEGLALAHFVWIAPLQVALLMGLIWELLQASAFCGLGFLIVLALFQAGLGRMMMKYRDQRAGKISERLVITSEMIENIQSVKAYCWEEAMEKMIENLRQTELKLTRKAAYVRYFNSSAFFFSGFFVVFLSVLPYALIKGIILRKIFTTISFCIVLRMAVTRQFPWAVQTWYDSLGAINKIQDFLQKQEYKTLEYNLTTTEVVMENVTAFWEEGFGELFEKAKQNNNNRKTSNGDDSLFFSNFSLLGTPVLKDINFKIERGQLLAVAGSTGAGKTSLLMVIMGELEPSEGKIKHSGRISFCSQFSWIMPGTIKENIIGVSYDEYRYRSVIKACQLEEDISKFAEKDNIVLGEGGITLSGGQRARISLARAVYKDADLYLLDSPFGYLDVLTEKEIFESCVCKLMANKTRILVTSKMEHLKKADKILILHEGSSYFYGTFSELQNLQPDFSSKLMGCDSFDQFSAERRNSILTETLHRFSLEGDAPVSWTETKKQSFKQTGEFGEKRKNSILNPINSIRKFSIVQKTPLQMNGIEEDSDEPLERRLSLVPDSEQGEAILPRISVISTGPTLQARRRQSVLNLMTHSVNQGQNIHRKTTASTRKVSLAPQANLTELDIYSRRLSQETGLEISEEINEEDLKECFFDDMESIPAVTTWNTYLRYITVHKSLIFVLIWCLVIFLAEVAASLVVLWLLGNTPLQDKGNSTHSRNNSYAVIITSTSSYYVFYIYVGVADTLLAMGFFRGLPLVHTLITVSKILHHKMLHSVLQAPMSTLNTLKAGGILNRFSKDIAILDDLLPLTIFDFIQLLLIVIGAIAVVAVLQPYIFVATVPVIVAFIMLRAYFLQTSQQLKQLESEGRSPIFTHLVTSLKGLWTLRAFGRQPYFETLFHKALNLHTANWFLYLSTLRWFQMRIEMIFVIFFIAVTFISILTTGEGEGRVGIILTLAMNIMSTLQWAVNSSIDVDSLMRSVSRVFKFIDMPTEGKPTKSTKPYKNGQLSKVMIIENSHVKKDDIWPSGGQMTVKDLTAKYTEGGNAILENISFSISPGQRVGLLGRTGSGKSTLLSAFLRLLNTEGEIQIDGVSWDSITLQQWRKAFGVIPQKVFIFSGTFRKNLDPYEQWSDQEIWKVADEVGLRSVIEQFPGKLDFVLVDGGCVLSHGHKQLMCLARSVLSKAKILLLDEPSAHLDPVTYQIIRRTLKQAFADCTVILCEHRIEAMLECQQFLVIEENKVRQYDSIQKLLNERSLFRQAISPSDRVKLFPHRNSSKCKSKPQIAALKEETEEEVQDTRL

| Compound | Ent. B Max Activity (%) (Table 10) | EC50 [1] [µM] | further results |
| --- | --- | --- | --- |
| COC(=O)NC1(C)CC2(CC(N3C(=O)c4cccc(c4)S(=O)(=O)Nc4nc(cc(-c5c(C)cccc5C)n4)OC[C@H]3CC(C)(C)C)C2)C1 (single isomer, unassigned) [Compound 96] | ++ (++ is 30-60%) | < 1 | – |
| Cc1cccc(C)c1-c1cc2nc(n1)NS(=O)(=O)c1cccc(c1)C(=O)N([C@H]1C[C@@H](CN(C)C)C1)[C@H](CC(C)C)CO2 (single isomer, unassigned) [Compound 105] | – | – | Ent. B Max Activity (%) (Table 9): +++ (+++ is >60%); EC50 (Table 9, read-out: Ent. B EC50): < 1 µM |
| Cc1cccc(C)c1-c1cc2nc(n1)NS(=O)(=O)c1cccc(c1)C(=O)N([C@H]1C[C@@H](CN(C)C)C1)[C@H](CC(C)C)CO2 (single isomer, unassigned) [Compound 106] | – | – | Ent. B Max Activity (%) (Table 9): +++ (+++ is >60%); EC50 (Table 9, read-out: Ent. B EC50): < 1 µM |
| Cc1cccc(C)c1-c1cc2nc(n1)NS(=O)(=O)c1cccc(c1)C(=O)N([C@H]1C[C@@H](CNC(=O)OC(C)C)C1)[C@H](CC(C)C)CO2 (single isomer, unassigned) [Compound 107] | – | – | Ent. B Max Activity (%) (Table 9): +++ (+++ is >60%); EC50 (Table 9, read-out: Ent. B EC50): < 1 µM |
| Cc1cccc(C)c1-c1cc2nc(n1)NS(=O)(=O)c1cccc(c1)C(=O)N([C@H]1C[C@@H](CNC(=O)OC(C)C)C1)[C@H](CC(C)C)CO2 (single isomer, unassigned) [Compound 108] | – | – | Ent. B Max Activity (%) (Table 9): +++ (+++ is >60%); EC50 (Table 9, read-out: Ent. B EC50): < 1 µM |
| Cc1cccc(C)c1-c1cc2nc(n1)NS(=O)(=O)c1cccc(c1)C(=O)N(C1CC3(CC(C(=O)N(C)C)C3)C1)[C@H](CC(C)(C)C)CO2 (single isomer, unassigned) [Compound 114] | +++ (+++ is >60%) | < 1 | – |
| [H][C@]1(N2C(=O)c3cccc(c3)S(=O)(=O)Nc3nc(cc(-c4c(C)cccc4C)n3)OC[C@H]2CC(C)(C)C)C[C@@]2(C[C@H](C(=O)N(C)C)C2)C1 (single isomer, unassigned) [Compound 115] | +++ (+++ is >60%) | < 1 | – |
| Cc1cccc(C)c1-c1cc2nc(n1)NS(=O)(=O)c1cccc(c1)C(=O)N(C1CC3(CC(N)C3)C1)[C@H](CC(C)(C)C)CO2 (single isomer, unassigned) [Compound 118] | – | – | Ent. B Max Activity (%): +++ (+++ is >60%); EC50 (read-out: Ent. B EC50): < 1 µM |
| [H][C@]1(N2C(=O)c3cccc(c3)S(=O)(=O)Nc3nc(cc(-c4c(C)cccc4C)n3)OC[C@H]2CC(C)C)C[C@@]2(C[C@H](NC(=O)OC(C)C)C2)C1 (single isomer, unassigned) [Compound 123] | +++ (+++ is >60%) | < 1 | – |
| [H][C@]1(N2C(=O)c3cccc(c3)S(=O)(=O)Nc3nc(cc(-c4c(C)cccc4C)n3)OC[C@H]2CC(C)C)C[C@@]2(C[C@H](NC(=O)OC(C)C)C2)C1 (single isomer, unassigned) [Compound 124] | +++ (+++ is >60%) | < 1 | – |
| Cc1cccc(C)c1-c1cc2nc(n1)NS(=O)(=O)c1cccc(c1)C(=O)N([C@H]1C[C@@H](OC(C)C)C1)[C@H](CC1(C(F)(F)F)CC1)CO2 (single isomer, unassigned) [Compound 130] | – | – | Ent. B Max Activity (%) (Table 9): +++ (+++ is >60%); EC50 (Table 9, read-out: Ent. B EC50): < 1 µM |
| Cc1cccc(C)c1-c1cc2nc(n1)NS(=O)(=O)c1cccc(c1)C(=O)N([C@H]1C[C@@H](OC(C)C)C1)[C@H](CC1(C(F)(F)F)CC1)CO2 (single isomer, unassigned) [Compound 131] | – | – | Ent. B Max Activity (%) (Table 9): +++ (+++ is >60%); EC50 (Table 9, read-out: Ent. B EC50): < 1 µM |
| [H][C@]1(N2C(=O)c3cccc(c3)S(=O)(=O)Nc3nc(cc(-c4c(C)cccc4C)n3)OC[C@H]2CC2(C(F)(F)F)CC2)C[C@]2(C[C@@H](CO)C2)C1 (single isomer, unassigned) [Compound 134] | – | – | Ent. B Max Activity (%): +++ (+++ is >60%); EC50 (read-out: Ent. B EC50): < 1 µM |
| [H][C@]1(N2C(=O)c3cccc(c3)S(=O)(=O)Nc3nc(cc(-c4c(C)cccc4C)n3)OC[C@H]2CC2(C(F)(F)F)CC2)C[C@]2(C[C@@H](CO)C2)C1 (single isomer, unassigned) [Compound 135] | – | – | Ent. B Max Activity (%): +++ (+++ is >60%); EC50 (read-out: Ent. B EC50): < 1 µM |
| Cc1cccc(C)c1-c1cc2nc(n1)NS(=O)(=O)c1cccc(c1)C(=O)N([C@H]1C[C@@H](C(C)(C)O)C1)[C@H](CC(C)(C)C)CO2 (single isomer, unassigned) [Compound 141] | +++ (+++ is >60%) | < 1 | – |
| Cc1cccc(C)c1-c1cc2nc(n1)NS(=O)(=O)c1cccc(c1)C(=O)N([C@H]1C[C@@H](C(C)(C)O)C1)[C@H](CC(C)(C)C)CO2 (single isomer, unassigned) [Compound 142] | +++ (+++ is >60%) | < 1 | – |
| COC(=O)N1C[C@H]2C[C@@H](C1)C2N1C(=O)c2cccc(c2)S(=O)(=O)Nc2nc(cc(-c3c(C)cccc3C)n2)OC[C@H]1CC(C)(C)C (single isomer, unassigned) [Compound 143] | ++ (++ is 30-60%) | – | EC50 (read-out: Ent. B EC50, Table 10): < 1 µM |
| Cc1cccc(C)c1-c1cc2nc(n1)NS(=O)(=O)c1cccc(c1)C(=O)N([C@@H]1CC[C@@H]1C1CC1)[C@H](CC(C)(C)C)CO2 (single isomer, unassigned) [Compound 147] | ++ (++ is 30-60%) | < 1 | – |
| Cc1cccc(C)c1-c1cc2nc(n1)NS(=O)(=O)c1cccc(c1)C(=O)N([C@@H]1CC[C@@H]1C1CC1)[C@H](CC(C)(C)C)CO2 (single isomer, unassigned) [Compound 148] | +++ (+++ is >60%) | < 1 | – |
| CO[C@H]1C[C@@H](N2C(=O)c3cccc(c3)S(=O)(=O)Nc3nc(cc(-c4c(C)cccc4C)n3)OC[C@H]2CC(C)(C)C)C1 (single isomer, unassigned) [Compound 150] | – | – | Ent. B Max Activity (%): +++ (+++ is >60%); EC50 (read-out: Ent. B EC50): < 1 µM |

Second part, led by results:

| Ent. B Max Activity (%) (Table 10) | EC50 [1] [µM] | Compound | further results |
| --- | --- | --- | --- |
| +++ (+++ is >60%) | < 1 | Cc1cccc(C)c1-c1cc2nc(n1)NS(=O)(=O)c1cccc(c1)C(=O)N(C1CC3(C1)CC(C(C)(C)O)C3)[C@H](CC(C)(C)C)CO2 (single isomer, unassigned) [Compound 116] | – |
| +++ (+++ is >60%) | < 1 | Cc1cccc(C)c1-c1cc2nc(n1)NS(=O)(=O)c1cccc(c1)C(=O)N(C1CC3(C1)CC(C(C)(C)O)C3)[C@H](CC(C)(C)C)CO2 (single isomer, unassigned) [Compound 117] | – |
| +++ (+++ is >60%) | < 1 | Cc1cccc(C)c1-c1cc2nc(n1)NS(=O)(=O)c1cccc(c1)C(=O)N(C1CC3(C1)CC(C)(O)C3)[C@H](CC(C)(C)C)CO2 (single isomer, unassigned) [Compound 119] | – |
| ++ (++ is 30-60%) | < 1 | Cc1cccc(C)c1-c1cc2nc(n1)NS(=O)(=O)c1cccc(c1)C(=O)N(C1CC3(C1)CC(C)(O)C3)[C@H](CC(C)(C)C)CO2 (single isomer, unassigned) [Compound 120] | – |
| +++ (+++ is >60%) | < 1 | Cc1cccc(C)c1-c1cc2nc(n1)NS(=O)(=O)c1cccc(c1)C(=O)N(C1CC3(CC(O)C3)C1)[C@H](CC(C)(C)C)CO2 (single isomer, unassigned) [Compound 121] | – |
| +++ (+++ is >60%) | < 1 | Cc1cccc(C)c1-c1cc2nc(n1)NS(=O)(=O)c1cccc(c1)C(=O)N(C1CC3(CC(O)C3)C1)[C@H](CC(C)(C)C)CO2 (single isomer, unassigned) [Compound 122] | – |
